These results are taken from PubChem BioAssay (NCI).

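Assay format: 96-well plates, 48-hour exposure. Here, GI50 denotes the concentration required for 50% inhibition of growth. TGI is the concentration that stops growth completely.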 Some results are limits rather than exact numbers.

The first test deals with OVCAR-5 ovarian. Put plainly: NCI anticancer screen, dose series, 48 h.
As for `COc1cc(-c2csc(NC(=O)c3cc(C(F)(F)F)cc(C(F)(F)F)c3)n2)cc(OC)c1OC`, the GI50 is 3.94 µM and the TGI is > 100 µM.

For `CC[N+]1(C)CCC(O)(c2ccc(C)cc2)C(C(=O)c2ccc(C)cc2)C1` (configuration not stated), the TGI was > 100 µM.

Regarding `O=c1oc2ccccc2c(O)c1C=NC(=S)c1ccncc1`, the TGI is > 100 µM.

`COc1cc(Nc2ccnc(N3CCN(c4ccnc5cc(Cl)ccc45)CC3)n2)cc(OC)c1`: the GI50 was 2.41 µM and the TGI is > 100 µM.

For the compound `COC(=O)C1=C(OC(=O)c2ccc(Cl)cc2)C(C(=O)OC)[C@@]2(O)[C@@H](C(=O)OC)C(c3ccccc3C(F)(F)F)C[C@@H]1[C@@H]2C(=O)OC` (some centres not stated), the GI50 is 54.2 µM and the TGI was > 100 µM.

Turning to `CC[C@H](C)[C@H](NC(=O)c1cnccn1)C(=O)N(C)[C@H](C[C@@H](OC(C)=O)c1nc(C(=O)N[C@@H](Cc2ccccc2)C[C@H](C)C(=O)OC)cs1)C(C)C`, the GI50 was 3.71 µM and the TGI is > 33.3 µM.

Turning to `Cc1c(C)c2cc3c(=O)ccoc3c(C)c2oc1=O`, the TGI was > 100 µM.

The subject of another test is MALME-3M melanoma. Briefly: NCI anticancer screen, dose series, 48 h.
The compound `CC[N+]1(C)CCC(O)(c2ccc(C)cc2)C(C(=O)c2ccc(C)cc2)C1` (configuration not stated) yielded a TGI of 52.7 µM.

Turning to `O=C(CC(C(=O)c1cccs1)c1ccc2c(c1)OCO2)c1ccc(Br)cc1` (configuration not stated), the TGI was > 100 µM.

`CC[C@H](C)[C@H](NC(=O)c1cnccn1)C(=O)N(C)[C@H](C[C@@H](OC(C)=O)c1nc(C(=O)N[C@@H](Cc2ccccc2)C[C@H](C)C(=O)OC)cs1)C(C)C`: the GI50 is 3.3 µM and the TGI was > 33.3 µM.

For the compound `Cc1c(C)c2cc3c(=O)ccoc3c(C)c2oc1=O`, the TGI is > 100 µM.

The subject of another test is MDA-MB-435. Briefly: NCI anticancer screen, dose series, 48 h.
Turning to `COc1cc(-c2csc(NC(=O)c3cc(C(F)(F)F)cc(C(F)(F)F)c3)n2)cc(OC)c1OC`, the GI50 is 2.67 µM and the TGI is > 100 µM.

On to `CC[N+]1(C)CCC(O)(c2ccc(C)cc2)C(C(=O)c2ccc(C)cc2)C1` (configuration not stated), for which the TGI is > 100 µM.

Consider `O=c1oc2ccccc2c(O)c1C=NC(=S)c1ccncc1`, for which the TGI is > 100 µM.

For the compound `COc1cc(Nc2ccnc(N3CCN(c4ccnc5cc(Cl)ccc45)CC3)n2)cc(OC)c1`, the GI50 was 0.209 µM and the TGI came to 0.626 µM.

Take `O=C(CC(C(=O)c1cccs1)c1ccc2c(c1)OCO2)c1ccc(Br)cc1` (configuration not stated): the TGI is > 100 µM.

For `COC(=O)C1=C(OC(=O)c2ccc(Cl)cc2)C(C(=O)OC)[C@@]2(O)[C@@H](C(=O)OC)C(c3ccccc3C(F)(F)F)C[C@@H]1[C@@H]2C(=O)OC` (some centres not stated), the GI50 was 17.6 µM and the TGI amounted to 50.2 µM.

Another test deals with A549 NSCLC. Put plainly: NCI anticancer screen, dose series, 48 h.
For `COc1cc(-c2csc(NC(=O)c3cc(C(F)(F)F)cc(C(F)(F)F)c3)n2)cc(OC)c1OC`, the GI50 is 2.58 µM and the TGI is > 100 µM.

Turning to `CC[N+]1(C)CCC(O)(c2ccc(C)cc2)C(C(=O)c2ccc(C)cc2)C1` (configuration not stated), the TGI is > 100 µM.

Regarding `O=c1oc2ccccc2c(O)c1C=NC(=S)c1ccncc1`, the TGI is > 100 µM.

Consider `COc1cc(Nc2ccnc(N3CCN(c4ccnc5cc(Cl)ccc45)CC3)n2)cc(OC)c1`, for which the GI50 is 1.81 µM and the TGI is > 26.7 µM.

On to `O=C(CC(C(=O)c1cccs1)c1ccc2c(c1)OCO2)c1ccc(Br)cc1` (configuration not stated), for which the TGI was > 100 µM.

For the compound `COC(=O)C1=C(OC(=O)c2ccc(Cl)cc2)C(C(=O)OC)[C@@]2(O)[C@@H](C(=O)OC)C(c3ccccc3C(F)(F)F)C[C@@H]1[C@@H]2C(=O)OC` (some centres not stated), the GI50 was 3.59 µM and the TGI was determined as 28.8 µM.

With `CC[C@H](C)[C@H](NC(=O)c1cnccn1)C(=O)N(C)[C@H](C[C@@H](OC(C)=O)c1nc(C(=O)N[C@@H](Cc2ccccc2)C[C@H](C)C(=O)OC)cs1)C(C)C`, the GI50 was 3.22 µM and the TGI was > 33.3 µM.

Turning to `Cc1c(C)c2cc3c(=O)ccoc3c(C)c2oc1=O`, the TGI was > 100 µM.

A further test relates to NCI-H23 lung. Put plainly: NCI anticancer screen, dose series, 48 h.
Consider `CC[N+]1(C)CCC(O)(c2ccc(C)cc2)C(C(=O)c2ccc(C)cc2)C1` (configuration not stated), for which the TGI was > 100 µM.

On to `O=c1oc2ccccc2c(O)c1C=NC(=S)c1ccncc1`, for which the TGI is > 100 µM.

Consider `COc1cc(Nc2ccnc(N3CCN(c4ccnc5cc(Cl)ccc45)CC3)n2)cc(OC)c1`, for which the GI50 is 1.32 µM and the TGI was > 100 µM.

In the case of `O=C(CC(C(=O)c1cccs1)c1ccc2c(c1)OCO2)c1ccc(Br)cc1` (configuration not stated), the TGI is > 100 µM.

In the case of `COC(=O)C1=C(OC(=O)c2ccc(Cl)cc2)C(C(=O)OC)[C@@]2(O)[C@@H](C(=O)OC)C(c3ccccc3C(F)(F)F)C[C@@H]1[C@@H]2C(=O)OC` (some centres not stated), the GI50 is 3.47 µM and the TGI turned out to be 16.8 µM.

Turning to `CC[C@H](C)[C@H](NC(=O)c1cnccn1)C(=O)N(C)[C@H](C[C@@H](OC(C)=O)c1nc(C(=O)N[C@@H](Cc2ccccc2)C[C@H](C)C(=O)OC)cs1)C(C)C`, the GI50 is 1.69 µM and the TGI is > 33.3 µM.

Turning to `Cc1c(C)c2cc3c(=O)ccoc3c(C)c2oc1=O`, the TGI was > 100 µM.

The next test concerns NCI-H226 lung. Briefly: NCI anticancer screen, dose series, 48 h.
In the case of `CC[N+]1(C)CCC(O)(c2ccc(C)cc2)C(C(=O)c2ccc(C)cc2)C1` (configuration not stated), the TGI was > 100 µM.

For `O=c1oc2ccccc2c(O)c1C=NC(=S)c1ccncc1`, the TGI is > 100 µM.

Take `COc1cc(Nc2ccnc(N3CCN(c4ccnc5cc(Cl)ccc45)CC3)n2)cc(OC)c1`: the GI50 was 2.34 µM and the TGI was > 55.7 µM.

As for `O=C(CC(C(=O)c1cccs1)c1ccc2c(c1)OCO2)c1ccc(Br)cc1` (configuration not stated), the TGI was > 100 µM.

For the compound `CC[C@H](C)[C@H](NC(=O)c1cnccn1)C(=O)N(C)[C@H](C[C@@H](OC(C)=O)c1nc(C(=O)N[C@@H](Cc2ccccc2)C[C@H](C)C(=O)OC)cs1)C(C)C`, the GI50 was 4.74 µM and the TGI is > 33.3 µM.

Take `Cc1c(C)c2cc3c(=O)ccoc3c(C)c2oc1=O`: the TGI was > 100 µM.

A further test relates to SNB-19 CNS. Briefly: NCI anticancer screen, dose series, 48 h.
As to `COc1cc(-c2csc(NC(=O)c3cc(C(F)(F)F)cc(C(F)(F)F)c3)n2)cc(OC)c1OC`, the GI50 was 3.89 µM and the TGI is > 100 µM.

On to `CC[N+]1(C)CCC(O)(c2ccc(C)cc2)C(C(=O)c2ccc(C)cc2)C1` (configuration not stated), for which the TGI is > 100 µM.

Turning to `O=c1oc2ccccc2c(O)c1C=NC(=S)c1ccncc1`, the TGI is > 100 µM.

For `COc1cc(Nc2ccnc(N3CCN(c4ccnc5cc(Cl)ccc45)CC3)n2)cc(OC)c1`, the GI50 is 2.64 µM and the TGI was > 100 µM.

Consider `O=C(CC(C(=O)c1cccs1)c1ccc2c(c1)OCO2)c1ccc(Br)cc1` (configuration not stated), for which the TGI was > 100 µM.

As to `COC(=O)C1=C(OC(=O)c2ccc(Cl)cc2)C(C(=O)OC)[C@@]2(O)[C@@H](C(=O)OC)C(c3ccccc3C(F)(F)F)C[C@@H]1[C@@H]2C(=O)OC` (some centres not stated), the GI50 was 6.44 µM and the TGI is > 100 µM.

As for `CC[C@H](C)[C@H](NC(=O)c1cnccn1)C(=O)N(C)[C@H](C[C@@H](OC(C)=O)c1nc(C(=O)N[C@@H](Cc2ccccc2)C[C@H](C)C(=O)OC)cs1)C(C)C`, the GI50 was 1.42 µM and the TGI was > 33.3 µM.

`Cc1c(C)c2cc3c(=O)ccoc3c(C)c2oc1=O`: the TGI is > 100 µM.

For a further test, the system named is HCT-15 colon. Briefly: NCI anticancer screen, dose series, 48 h.
Turning to `COc1cc(-c2csc(NC(=O)c3cc(C(F)(F)F)cc(C(F)(F)F)c3)n2)cc(OC)c1OC`, the GI50 was 2.71 µM and the TGI was > 100 µM.

As for `CC[N+]1(C)CCC(O)(c2ccc(C)cc2)C(C(=O)c2ccc(C)cc2)C1` (configuration not stated), the TGI amounted to 45.9 µM.

`O=c1oc2ccccc2c(O)c1C=NC(=S)c1ccncc1`: the TGI is > 100 µM.

As for `COc1cc(Nc2ccnc(N3CCN(c4ccnc5cc(Cl)ccc45)CC3)n2)cc(OC)c1`, the GI50 was 0.109 µM and the TGI is > 100 µM.

For `O=C(CC(C(=O)c1cccs1)c1ccc2c(c1)OCO2)c1ccc(Br)cc1` (configuration not stated), the TGI was > 100 µM.

As to `COC(=O)C1=C(OC(=O)c2ccc(Cl)cc2)C(C(=O)OC)[C@@]2(O)[C@@H](C(=O)OC)C(c3ccccc3C(F)(F)F)C[C@@H]1[C@@H]2C(=O)OC` (some centres not stated), the GI50 was 2.87 µM and the TGI was determined as 14.6 µM.

Turning to `CC[C@H](C)[C@H](NC(=O)c1cnccn1)C(=O)N(C)[C@H](C[C@@H](OC(C)=O)c1nc(C(=O)N[C@@H](Cc2ccccc2)C[C@H](C)C(=O)OC)cs1)C(C)C`, the GI50 is 1.06 µM and the TGI is > 33.3 µM.

As for `Cc1c(C)c2cc3c(=O)ccoc3c(C)c2oc1=O`, the TGI was > 100 µM.

A further test has as its system LOX IMVI melanoma. Briefly: NCI anticancer screen, dose series, 48 h.
Consider `COc1cc(-c2csc(NC(=O)c3cc(C(F)(F)F)cc(C(F)(F)F)c3)n2)cc(OC)c1OC`, for which the GI50 is 2.92 µM and the TGI was > 100 µM.

Take `O=c1oc2ccccc2c(O)c1C=NC(=S)c1ccncc1`: the TGI is > 100 µM.

As to `COc1cc(Nc2ccnc(N3CCN(c4ccnc5cc(Cl)ccc45)CC3)n2)cc(OC)c1`, the GI50 is 0.749 µM and the TGI amounted to 5.68 µM.

For `CC[C@H](C)[C@H](NC(=O)c1cnccn1)C(=O)N(C)[C@H](C[C@@H](OC(C)=O)c1nc(C(=O)N[C@@H](Cc2ccccc2)C[C@H](C)C(=O)OC)cs1)C(C)C`, the GI50 is 1.63 µM and the TGI was > 33.3 µM.

Take `Cc1c(C)c2cc3c(=O)ccoc3c(C)c2oc1=O`: the TGI was > 100 µM.

Another test has as its system EKVX NSCLC. Put plainly: NCI anticancer screen, dose series, 48 h.
Turning to `COc1cc(-c2csc(NC(=O)c3cc(C(F)(F)F)cc(C(F)(F)F)c3)n2)cc(OC)c1OC`, the GI50 is 2.47 µM and the TGI is > 100 µM.

As for `CC[N+]1(C)CCC(O)(c2ccc(C)cc2)C(C(=O)c2ccc(C)cc2)C1` (configuration not stated), the TGI was > 100 µM.

On to `O=c1oc2ccccc2c(O)c1C=NC(=S)c1ccncc1`, for which the TGI is > 100 µM.

With `O=C(CC(C(=O)c1cccs1)c1ccc2c(c1)OCO2)c1ccc(Br)cc1` (configuration not stated), the TGI is > 100 µM.

In the case of `COC(=O)C1=C(OC(=O)c2ccc(Cl)cc2)C(C(=O)OC)[C@@]2(O)[C@@H](C(=O)OC)C(c3ccccc3C(F)(F)F)C[C@@H]1[C@@H]2C(=O)OC` (some centres not stated), the GI50 was 8.1 µM and the TGI was > 100 µM.

For `CC[C@H](C)[C@H](NC(=O)c1cnccn1)C(=O)N(C)[C@H](C[C@@H](OC(C)=O)c1nc(C(=O)N[C@@H](Cc2ccccc2)C[C@H](C)C(=O)OC)cs1)C(C)C`, the GI50 is 1.75 µM and the TGI was > 33.3 µM.

Take `Cc1c(C)c2cc3c(=O)ccoc3c(C)c2oc1=O`: the TGI is > 100 µM.
